# Source: US9089544B2, “Composition” (Slotervaart Participaties BV, priority 2007, dated 2015)
# Several values for one entry are separate records, joined by “and”; a condition that tells them apart may be missing. Equal entries are not always repeated.
# Key:
# [1] = cited from earlier work
# [2] = cited from earlier work; remark: listed apart in the source
# [3] = clinical; conditions: human, in vivo, 100 mg
# Method: Oral ritonavir: 1 capsule with 100 mg ritonavir (Norvir®).
# Ritonavir dose: 1 capsule with 100 mg ritonavir (Norvir®).
# After drug administration blood samples were collected for pharmacokinetic analyses. A blank sample was taken before dosing. Blood samples were centrifuged, plasma was separated and immediately stored at −20° C. until analyses. Analysis were performed with validated HPLC methods in a GLP (Good Laboratory Practice) licensed laboratory. This concerns all pharmacokinetic studies presented here by the inventors.
# [4] = Docetaxel solubility (dissolution) test of formulations A to N in 25 mL WfI; assay type: physicochemical; conditions: 37° C., 720 rpm; for maximum docetaxel concentration / maximum docetaxel concentration as % of total docetaxel present: ±6 mg docetaxel
# Method: A magnetic stirring bar and 25 mL water were added to the beaker. The solution was stirred at 720 rpm, and kept at approximately 37° C. Samples were collected at various timepoints, and filtrated using a 0.45 μm filter before they were diluted with a 1:4 v/v mixture of methanol and acetonitrile. The filtrated and diluted samples were subsequently analyzed by HPLC-UV (see table 17).
# [5] = cited from earlier work; remark: listed apart in the source
# [6] = Clinical phase I trial: docetaxel liquid formulation versus MODRA capsules with ritonavir (Example 5); assay type: in vivo, human; conditions: 20 mg docetaxel liquid formulation, patient 306
# Method: 10 patients participated in an ongoing clinical phase I trial.
# The final mixture was transferred to a stainless steel lyophilisation box (Gastronorm size 1/3), t-butanol and water were subsequently removed by lyophilisation (see table. 16).
# Patients took the medication orally on an empty stomach in the morning with 100 mL tap water.
# Patients 307, 308, 309 and 310 received liquid formulation and/or MODRA. Cycles were administered in a weekly interval.
# According to institutional guidelines, for both oral and i.v. docetaxel all patients were treated with oral dexamethason. A dose of 4 mg dexamethason was given 1 hour prior to the study drugs, followed by 4 mg every 12 hours (2 times).
# A blank sample was taken before dosing.
# According to institutional guidelines, for both oral and i.v. docetaxel, all patients were treated with oral dexamethason. A dose of 4 mg dexamethason was given 1 hour prior to the study drugs, followed by 4 mg every 12 hours (2 times).
# [7] = cited from earlier work; remark: listed apart in the source
# [8] = human, in vivo
# Method: (§1) Pharmacokinetic (PK) analysis of the data generated from the above trial was performed using the NONMEM (non-linear mixed effect modelling) program (GloboMax LLC, Hanover, Md., USA) to produce a pharmacokinetic profile. This models the absorption, elimination and distribution of a drug using different compartments.
# (§2) This model uses three compartments and is well described by Bruno et al. [85].
# [9] = mice; cited from earlier work
# [10] = clinical; conditions: human, in vivo, po, 100 mg
# Method: as §1, §2
# [11] = oral docetaxel 75 mg/m^2, CsA 15 mg/kg
smiles,measurement,setting,value
CC(=O)O[C@H]1C(=O)[C@@]2(C)[C@H]([C@H](OC(=O)c3ccccc3)[C@]3(O)C[C@H](OC(=O)[C@H](O)[C@@H](NC(=O)c4ccccc4)c4ccccc4)C(C)=C1C3(C)C)[C@]1(OC(C)=O)CO[C@@H]1C[C@@H]2O [paclitaxel],"increase of AUC in knockout mice compared with wild-type mice, i.v. administration",[1]; mdr1a P-gp knockout mice,twofold
same,"increase of AUC in knockout mice compared with wild-type mice, oral administration",[1]; mdr1a P-gp knockout mice,sixfold
same,oral bioavailability in wild-type mice when CsA was coadministered,"[1]; mouse, in vivo, po",67%
same,oral bioavailability in wild-type mice with GF120918,"[1]; mouse, in vivo, po",40%
same,"oral bioavailability in wild-type mice, paclitaxel alone","[1]; mouse, in vivo, po",9% and 8.5%
same,"fraction of unchanged paclitaxel recovered from the faeces, mdr1a P-gp knockout mice",[1]; oral administration,3%
same,apparent bioavailability of oral paclitaxel with CsA,"[2]; 60 mg/m^2 oral paclitaxel, 15 mg/kg CsA",47%
same,apparent bioavailability of oral paclitaxel without CsA,[2]; 60 mg/m^2 oral paclitaxel,4%
same,maximum tolerated dose,[2]; oral paclitaxel in combination with CsA,300 mg/m^2
CC(C)c1nc(CN(C)C(=O)N[C@H](C(=O)N[C@@H](Cc2ccccc2)C[C@H](O)[C@H](Cc2ccccc2)NC(=O)OCc2cncs2)C(C)C)cs1 [ritonavir],Ritonavir Cmax Simultaneous,[3]; po,200 ng/mL
"CC(=O)O[C@@]12CO[C@@H]1C[C@H](O)[C@@]1(C)C(=O)[C@H](O)C3=C(C)[C@@H](OC(=O)[C@H](O)[C@@H](NC(=O)OC(C)(C)C)c4ccccc4)C[C@@](O)([C@@H](OC(=O)c4ccccc4)[C@H]21)C3(C)C [Formulation A, docetaxel]",equilibrium docetaxel concentration,[4],approximately 6 μg/mL
same,equilibrium docetaxel concentration as % of total docetaxel present,[4],~2%
same,time at which equilibrium concentration is reached,[4],15 min
same,time of stirring at which maximum concentration is reached,[4],5 min
same,maximum docetaxel concentration,[4],approximately 12 μg/mL
same,maximum docetaxel concentration as % of total docetaxel present,[4],~4.7%
"CC(=O)O[C@@]12CO[C@@H]1C[C@H](O)[C@@]1(C)C(=O)[C@H](O)C3=C(C)[C@@H](OC(=O)[C@H](O)[C@@H](NC(=O)OC(C)(C)C)c4ccccc4)C[C@@](O)([C@@H](OC(=O)c4ccccc4)[C@H]21)C3(C)C [Formulation B, docetaxel]",solubility from 10 to 60 minutes,[4],comparable to formulation A
same,time of stirring at which maximum concentration is reached,[4],0.5 min
same,maximum docetaxel concentration,[4],32 µg/mL
same,maximum docetaxel concentration as % of total docetaxel present,[4],13%
CC(=O)O[C@@]12CO[C@@H]1C[C@H](O)[C@@]1(C)C(=O)[C@H](O)C3=C(C)[C@@H](OC(=O)[C@H](O)[C@@H](NC(=O)OC(C)(C)C)c4ccccc4)C[C@@](O)([C@@H](OC(=O)c4ccccc4)[C@H]21)C3(C)C [docetaxel],docetaxel AUC,"[5]; 100 mg oral docetaxel + CsA 15 mg/kg, weekly",about 2.3 mg·h/L
same,overall response rate,"[5]; weekly 100 mg oral docetaxel + CsA 15 mg/kg, breast cancer",50% and 52%
same,increase of docetaxel AUC by second boosting dose of 100 mg ritonavir 4 hours after docetaxel,[6],1.5 fold
same,apparent bioavailability of oral docetaxel with CsA,[7]; [11],90%
same,increase of the systemic exposure of docetaxel with oral CsA,[7]; [11],7.3 fold
same,apparent bioavailability of oral docetaxel without CsA,[7]; oral docetaxel 75 mg/m^2,8%
same,inter- and intra-patient variabilities in the AUC of docetaxel,"[7]; range observed after i.v. administration, oral in the same range",29%-53%
same,"volume of the central compartment, oral administration",[8],~60 L
same,apparent bioavailability without ritonavir,[9],4%
same,increase of AUC of oral docetaxel by coadministration with CsA,[9],ninefold
same,bioavailability,[10],14%
same,AUC,"[3]; iv, AUC IV day 15",2100 ng·h/mL
same,Tmax,"[3]; iv, Tmax IV day 15",48 min
same,AUC,"[3]; po, AUC docetaxel oral without ritonavir",290 ± 260 ng·h/mL
